Measurements as given in patent US20240246905A1 (University of Leicester, priority 2021, published 2024).
In brackets after ≈: the same amount, converted by molar mass.

Key:
[1] = system: MRSA 252; assay: MIC, broth micro-dilution; type: cell-based, Staphylococcus aureus; details: Staphylococcus aureus, read-out: MIC
Outline: (§1)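 S. aureus cultures grown 18 h in TSB were used to inoculate twofold antibiotic series in TSB at 5×10^5 CFU/mL, per CLSI guidelines. Growth curves read by optical density at 12-min intervals for 18 h at 37 °C were fitted sigmoidally to calculate MIC.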

[2] = system: MSSA 476; assay: MIC, broth micro-dilution; type: cell-based, Staphylococcus aureus; details: Staphylococcus aureus, MSSA, read-out: MIC
Outline: as §1

[3] = system: various Staphylococcus aureus strains; assay: Disc diffusion, Staphylococcus aureus strain study; type: cell-based; details: Staphylococcus aureus, 500 μg/mL
From the text: At this point in the study it was decided to perform a disc diffusion assay study on 50 S. aureus strains. […] Moreover, by employing a range of mutant strains of S. aureus with specific gene-deletions, it was believed that if particular strains were resistant to the lead compounds, it could provide insights on the likely protein target of the lead antibiotics. However, all six of the compounds utilized in this study were able to inhibit growth of all 50 strains of S. aureus assayed at the chosen concentration of 500 μg/mL concentration (Table 5).
E. coli DH5α, P. aeruginosa PA01 and the 53 S. aureus strains were recovered from frozen (−80° C.) glycerol (15% v/v) stocks on Lysogeny agar (LA)—Gram negative and trypticase soy agar (TSA)—plates at 37° C. for 24 hours. Single colonies were placed in either 3 mL Lysogeny broth (LB)—Gram negative or trypticase soy broth (TSB)—Gram positive and incubated at 37° C., 250 rpm for 18 hours.
The antibiotic activity was determined using a Kirby-Bauer method according to Clinical Standard Laboratory Institute (CSLI) Guidelines (2017). Briefly, 180 μL of a 1 in 200 dilution (in LB or TSB) of overnight cultures of selected Gram negative and Gram positive bacteria were applied to an agar plate containing the solid growth medium, Mueller-Hinton agar (MHA). Sterile discs, inoculated with 50 μL of antibiotic, were first added to the agar plate before the plates were incubated for 24 hours at 37° C. Following incubation, the zone of inhibition (if it existed) was recorded.

[4] = system: HEK293 cells; assay: Cytotoxicity assay, resazurin (CO-ADD)
Outline: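 HEK293 cells in DMEM with 10% FBS were exposed to compounds at a single concentration of 32 μg/mL for 20 h at 37° C, 5% CO2. Viability read by resazurin fluorescence (2.3 μg/mL final, 3 h; F560/590). CC50 from sigmoidal dose-response fitting.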

[5] = system: Escherichia coli DH5α; assay: Disc diffusion (Kirby-Bauer), zone of inhibition; type: cell-based; details: Escherichia coli DH5α; 500 μg/mL; '/' = no zone; read-out: Zone of inhibition
Outline: (§2)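 Zones of inhibition recorded after 24 h at 37 °C on Mueller-Hinton agar. Agar was inoculated with 1 in 200 diluted 18 h broth cultures, and discs carried 50 μL of antibiotic. Method follows CLSI 2017 disc diffusion.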

[6] = system: Staphylococcus aureus 15981; assay: Disc diffusion (Kirby-Bauer), zone of inhibition; type: cell-based; details: Staphylococcus aureus 15981; 500 μg/mL; '/' = no zone; read-out: Zone of inhibition
Outline: as §2

[7] = system: red blood cells; assay: Hemolysis assay (CO-ADD); type: cell-based; details: 32 μg/mL highest concentration tested
From the text: A problem often encountered by emerging drugs is hemolysis, also known as drug-induced immune hemolytic anemia.

[8] = system: MRSA 252; assay: Disc diffusion (Kirby-Bauer), zone of inhibition; type: cell-based, Staphylococcus aureus; details: Staphylococcus aureus, 500 μg/mL, '/' = no zone, read-out: Zone of inhibition
Outline: as §2

[9] = system: MSSA 476; assay: Disc diffusion (Kirby-Bauer), zone of inhibition; type: cell-based, Staphylococcus aureus; details: Staphylococcus aureus, 500 μg/mL, '/' = no zone, read-out: Zone of inhibition
Outline: as §2

## [C-]#[N+]/C=C/c1ccc(NC(C)=O)cc1/C=C/c1ccccc1 [Compound 41, N-(4-((E)-2-Isocyanovinyl)-3-((E)-styryl)phenyl)acetamide]
[1]
  MIC: 6 µg/mL (≈ 20.8 µM)
[2]
  MIC: 8 µg/mL (≈ 27.7 µM)
[3]; strain ASARM 61
  zone of inhibition at 500 µg/mL: 28 mm
[3]; strain ASARM 70
  zone of inhibition at 500 µg/mL: 32 mm
[3]; strain ASARM 71
  zone of inhibition at 500 µg/mL: 32 mm
[3]; strain ASARM 72
  zone of inhibition at 500 µg/mL: 30 mm
[3]; strain ASARM 73
  zone of inhibition at 500 µg/mL: 27 mm
[3]; strain ASARM 75
  zone of inhibition at 500 µg/mL: 26 mm
[3]; strain ASARM 76
  zone of inhibition at 500 µg/mL: 27 mm
[3]; strain ASARM 77
  zone of inhibition at 500 µg/mL: 25 mm
[3]; strain ASARM 79
  zone of inhibition at 500 µg/mL: 29 mm
[3]; strain ASARM 80
  zone of inhibition at 500 µg/mL: 30 mm
[3]; strain EOE 3
  zone of inhibition at 500 µg/mL: 26 mm
[3]; strain EOE 23
  zone of inhibition at 500 µg/mL: 26 mm
[3]; strain EOE 30
  zone of inhibition at 500 µg/mL: 30 mm
[3]; strain EOE 35
  zone of inhibition at 500 µg/mL: 28 mm
[3]; strain EOE 41
  zone of inhibition at 500 µg/mL: 26 mm
[3]; strain EOE 42
  zone of inhibition at 500 µg/mL: 30 mm
[3]; strain EOE 45
  zone of inhibition at 500 µg/mL: 30 mm
[3]; strain EOE 52
  zone of inhibition at 500 µg/mL: 28 mm
[3]; strain EOE 54
  zone of inhibition at 500 µg/mL: 26 mm
[3]; strain EOE 57
  zone of inhibition at 500 µg/mL: 30 mm
[3]; strain S139_7_7
  zone of inhibition at 500 µg/mL: 22 mm
[3]; strain S197_1_1
  zone of inhibition at 500 µg/mL: 32 mm
[3]; strain S197_1_8
  zone of inhibition at 500 µg/mL: 30 mm
[3]; strain S197_1_9
  zone of inhibition at 500 µg/mL: 32 mm
[3]; strain S197_1_10
  zone of inhibition at 500 µg/mL: 31 mm
[3]; strain S295_1_1
  zone of inhibition at 500 µg/mL: 29 mm
[3]; strain S295_1_2
  zone of inhibition at 500 µg/mL: 25 mm
[3]; strain S295_1_3
  zone of inhibition at 500 µg/mL: 27 mm
[3]; strain S364_5_11
  zone of inhibition at 500 µg/mL: 27 mm
[3]; strain S364_5_12
  zone of inhibition at 500 µg/mL: 28 mm
[3]; strain Sa_TPS 3026
  zone of inhibition at 500 µg/mL: 28 mm
[3]; strain Sa_TPS 3072
  zone of inhibition at 500 µg/mL: 26 mm
[3]; strain Sa_TPS 3092
  zone of inhibition at 500 µg/mL: 28 mm
[3]; strain Sa_TPS 3097
  zone of inhibition at 500 µg/mL: 28 mm
[3]; strain Sa_TPS 3103
  zone of inhibition at 500 µg/mL: 28 mm
[3]; strain Sa_TPS 3104
  zone of inhibition at 500 µg/mL: 28 mm
[3]; strain Sa_TPS 3106
  zone of inhibition at 500 µg/mL: 36 mm
[3]; strain Sa_TPS 3118
  zone of inhibition at 500 µg/mL: 32 mm
[3]; strain Sa_TPS 3133
  zone of inhibition at 500 µg/mL: 28 mm
[3]; strain Sa_TPS 3134
  zone of inhibition at 500 µg/mL: 26 mm
[3]; strain USFL 008
  zone of inhibition at 500 µg/mL: 28 mm
[3]; strain USFL 009
  zone of inhibition at 500 µg/mL: 27 mm
[3]; strain USFL 012
  zone of inhibition at 500 µg/mL: 32 mm
[3]; strain USFL 016
  zone of inhibition at 500 µg/mL: 29 mm
[3]; strain USFL 018
  zone of inhibition at 500 µg/mL: 32 mm
[3]; strain USFL 020
  zone of inhibition at 500 µg/mL: 28 mm
[3]; strain USFL 021
  zone of inhibition at 500 µg/mL: 29 mm
[3]; strain USFL 028
  zone of inhibition at 500 µg/mL: 29 mm
[3]; strain USFL 035
  zone of inhibition at 500 µg/mL: 30 mm
[3]; strain USFL 054
  zone of inhibition at 500 µg/mL: 30 mm
[3]; strain not given
  zone of inhibition at 500 µg/mL: 30 mm
[4]; HEK 293
  Concentration toxic to HEK 293 cells: >32000 ng/mL
[4]; set concentration of 32 μg/mL
  toxicity towards the HEK293 cell line (in words): no toxicity
[5]
  zone of inhibition at 500 µg/mL: 20 mm
[6]
  zone of inhibition at 500 µg/mL: 34 mm
[7]
  Hemolytic activity (HC10): >32 µg/mL
[8]
  zone of inhibition at 500 µg/mL: 32 mm
[9]
  zone of inhibition at 500 µg/mL: 34 mm
